{"source": "patent US11766446B2", "about": "“Treatment of aging-associated conditions by DNA degradation” (The General Hospital Corporation, priority 2018, dated 2023)", "assay_type_in_all_cases": "cell-based, human", "key": {"[1]": {"test_system": "MRC5 cells", "experiment": "SA-β-gal activity staining in young and old MRC5 cells", "conditions": "aged MRC5 cells; Ara-C 10 μM, 24 h; FIG. 6F", "description": "(§1) Ara-C, bafilomycin A1 and rapamycin were from Sigma-Aldrich (St. Louis, Mo.); SA β-gal Staining Kit was from Cell Signaling (Danvers, Mass.); TUNEL Apo-Green detection reaction mixture was from Biomake (Houston, Tex.)."}, "[2]": {"test_system": "MRC5 cells", "experiment": "RT-qPCR expression of IFNI-inducible, inflammatory and cell-cycle genes in young and old cells", "conditions": "old MRC5 cells", "description": "0.25-1 μg of total RNA was reverse-transcribed with High Capacity cDNA Reverse Transcription kit (Applied Biosystems). Quantitative PCR was then performed using LightCyler® 480 SYBR Master I reagents (Roche) on LightCyler® 96 instrument. Transcript levels were normalized to B2M or GAPDH. Primer pairs used are listed below."}, "[3]": {"test_system": "MRC5 cells", "experiment": "Immunofluorescence anti-dsDNA staining of nuclear and cytosolic DNA in young and old MRC5 cells", "conditions": "24 hr", "description": "Cells were cultured in Lab-Tek II 8-well chamber slides, fixed with 4% PFA (10 min), permeabilized with 0.5% Triton X-100 (5 min), then blocked and stained with antibodies against: dsDNA (Santa Cruz, 1:500), 7H2AX, NUP98, pTBK1 (both Cell Signaling, 1:200), LC3 (Novus Biologicals, 1:200) or biotin-LAMP1 (BioLegend, 1:200), followed by fluorescent secondary antibodies (45 min). Methanol fixation was used for anti-pIRF3 (Cell Signaling, 1:200) staining.\nNuclear and cytosolic DNA signals from 5 of 10× or 20× images (˜50-200 cells per image) were quantified using Fiji. Region of interest (ROI) was defined in each image and threshold set to measure fluorescence above background. Nuclear ROI was defined by DAPI staining and its intensity subtracted from total fluorescence to determine cytoplasmic signal. Quantitative fluorescence was presented as integrated density per cell with cell number determined by particle count of DAPI."}, "[4]": {"test_system": "MRC5 cells", "experiment": "TUNEL assay detecting DNA fragmentation (nicked DNA) in young and old MRC5 cells", "conditions": "Ara-C 10 μM, 24 hr, FIG. 1B", "description": "as §1"}, "[5]": {"conditions": "bafilomycin 20 nM, 8 hr, FIG. 2F"}}}
{"smiles": "Nc1ccn([C@@H]2O[C@H](CO)[C@@H](O)[C@@H]2O)c(=O)n1", "note": "[Ara-C, cytarabine]", "values": [{"measurement": "percentage of SA-β-gal+ cells", "setting": "[1]", "result": "further increased"}, {"measurement": "CXCL10 expression (RT-qPCR)", "setting": "[2]; Ara-C 10 μM, 24 hr, FIG. 2A", "result": "further increased"}, {"measurement": "IL-6 expression (RT-qPCR)", "setting": "[2]; Ara-C 10 μM, 24 hr, FIG. 2A", "result": "further increased"}, {"measurement": "MX1 expression (RT-qPCR)", "setting": "[2]; Ara-C 10 μM, 24 hr, FIG. 2A", "result": "further increased"}, {"measurement": "nuclear DNA in old cells (anti-dsDNA IF)", "setting": "[3]; old MRC5 cells, Ara-C 10 μM, FIG. 1C", "result": "more nuclear DNA"}, {"measurement": "extranuclear DNA in young cells (anti-dsDNA IF)", "setting": "[3]; young MRC5 cells, Ara-C 10 μM, FIG. 1C", "result": "more extranuclear DNA"}, {"measurement": "nicked DNA (TUNEL staining) in old cells", "setting": "[4]", "result": "more intense"}]}
{"smiles": "CO/C1=C\\C(C)=C\\[C@@H](C)[C@@H](O)[C@@H](C)C/C(C)=C/C=C/[C@H](OC)[C@@H]([C@@H](C)[C@@H](O)[C@H](C)[C@@]2(O)C[C@@H](O)[C@H](C)[C@@H](C(C)C)O2)OC1=O", "note": "[bafilomycin A1]", "values": [{"measurement": "CXCL10 expression (RT-qPCR)", "setting": "[2]; [5]", "result": "increased levels"}, {"measurement": "MX1 expression (RT-qPCR)", "setting": "[2]; [5]", "result": "increased levels"}]}
{"smiles": "CCC(=C/[C@H](C)C/C=C/C(C)=C/[C@@H](C)C(=O)[C@@H](C)[C@H](O)[C@@H](C)C/C(C)=C/C(=O)O)/C=C/[C@@H]1OC(=O)C=C[C@@H]1C", "note": "[leptomycin B]", "values": [{"measurement": "dsDNA staining in nuclei (anti-dsDNA IF)", "setting": "[3]; LMB-treated cells, 20 nM, FIG. 1D", "result": "some increase"}, {"measurement": "cytosolic DNA in old cells (anti-dsDNA IF)", "setting": "[3]; old MRC5 cells, LMB 20 nM, FIG. 1D", "result": "dramatic reduction"}]}
